Consider six molecules from PubChem BioAssay (NCI).

Each structure is given as a SMILES string. Values joined by “and” are separate entries in the source; they are usually repeats but may differ in a detail not shown here. Equal entries are not always repeated.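 Where inhibition never reached the appropriate level, the endpoint shown equals the highest concentration tested. Otherwise, values were interpolated linearly from a five-concentration, 48-hour dose response in 96-well plates. GI50 is the concentration that inhibits growth by half. TGI: total growth inhibition.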

For orientation: GI50 means the concentration at which growth is held to half of that of the control. As usually defined, the TGI is the concentration at which net growth stops.

Some test systems named below: K-562 leukemia; ACHN renal; PC-3 prostate; HL-60(TB) leukemia; SF-295 CNS; BT-549 breast; SNB-19 CNS; SF-539 CNS; HOP-92 NSCLC; TK-10 renal.
What all share (test): DTP human tumour cell line panel, 48 h

On to `CCN(CC)CCOc1ccc(C2=C(c3ccccc3)CCc3cc(OC)ccc32)cc1`, for which the GI50 is 2800 nM in the assay with K-562 leukemia; 4200 nM in the assay with ACHN renal; 7660 nM in the assay on PC-3 prostate; 8990 nM with HL-60(TB) leukemia; 1590 nM with SF-295 CNS; 4170 nM in the assay on BT-549 breast. The GI50 in the assay with SNB-19 CNS was 2380 nM; in the assay with SF-539 CNS, 1520 nM; with HOP-92 NSCLC, 3640 nM; in the assay with TK-10 renal, 2740 nM. The TGI in the assay on K-562 leukemia is 15500 nM; with ACHN renal, 15400 nM; in the assay on PC-3 prostate it was over 51100 nM; with HL-60(TB) leukemia, 26000 nM; in the assay on SF-295 CNS, 3270 nM; with BT-549 breast, 15200 nM. The concentration for total growth inhibition (TGI) in the assay on SNB-19 CNS worked out at 7420 nM; with SF-539 CNS it was 2890 nM; in the assay on HOP-92 NSCLC, 10900 nM; in the assay with TK-10 renal, 9470 nM.
Consider `CC(C)(C)c1ccc(S(=O)(=O)N[C@H]2CC[C@H]3[C@@H]4CCc5cc(O)ccc5[C@H]4CC[C@]23C)cc1`, for which the GI50 in the assay with K-562 leukemia is 2460 nM; in the assay with ACHN renal, 2280 nM; with PC-3 prostate, 2100 nM; with HL-60(TB) leukemia, 2310 nM; in the assay on SF-295 CNS it was 1660 nM; in the assay on BT-549 breast it was 1750 nM. In addition, the GI50 with SNB-19 CNS was 3540 nM; in the assay on SF-539 CNS it was 1700 nM; in the assay with HOP-92 NSCLC, 1530 nM; in the assay with TK-10 renal, 3790 nM. Besides, the TGI in the assay on K-562 leukemia worked out at 8640 nM; with ACHN renal it was 5670 nM; in the assay with PC-3 prostate, 7570 nM; in the assay with HL-60(TB) leukemia, 6110 nM; in the assay on SF-295 CNS it was 3160 nM; in the assay on BT-549 breast it was 3320 nM. Further, the TGI in the assay on SNB-19 CNS turned out to be 18000 nM; in the assay with SF-539 CNS it was 3140 nM; in the assay on HOP-92 NSCLC, 4200 nM; in the assay with TK-10 renal, 12100 nM.
In the case of `Cc1ccc(OCCCCCCNCCO)c(C)c1`, the GI50 in the assay with K-562 leukemia is 12200 nM; in the assay on ACHN renal, 13800 nM; with PC-3 prostate, 14000 nM; in the assay with HL-60(TB) leukemia, 323 nM; with SF-295 CNS it was 17800 nM; in the assay on BT-549 breast it was 13500 nM. The GI50 was 14300 nM in the assay with SNB-19 CNS, 14700 nM in the assay with SF-539 CNS, 2360 nM in the assay with HOP-92 NSCLC and 16000 nM in the assay on TK-10 renal. Also, the TGI with K-562 leukemia worked out at 31400 nM; in the assay with ACHN renal, 27800 nM; in the assay on PC-3 prostate it was 29700 nM; in the assay with HL-60(TB) leukemia, 1450 nM; with SF-295 CNS, 39000 nM; in the assay on BT-549 breast, 28000 nM. The TGI in the assay with SNB-19 CNS was 31000 nM; in the assay on SF-539 CNS, 28600 nM; in the assay with HOP-92 NSCLC it was 13400 nM; in the assay with TK-10 renal it was 30000 nM.
Take `COc1cc(C2c3cc4c(cc3[C@@H](Nc3cccc(O)c3)C3COC(=O)[C@H]23)OCO4)cc(OC)c1O` (stereo not given in full): the GI50 is 802 nM in the assay on K-562 leukemia; 356 nM in the assay with ACHN renal; 230 nM with HL-60(TB) leukemia; 585 nM in the assay on SF-295 CNS; 949 nM in the assay with SNB-19 CNS; 482 nM with SF-539 CNS. The GI50 with HOP-92 NSCLC was 458 nM. For the same molecule, the total growth inhibition concentration (TGI) with K-562 leukemia is 22200 nM; with ACHN renal it was 3560 nM; in the assay on PC-3 prostate, 15400 nM; with HL-60(TB) leukemia it was 802 nM and 2730 nM; in the assay on SF-295 CNS, 8070 nM; with BT-549 breast it was 6700 nM. The TGI in the assay with SNB-19 CNS is 24900 nM; in the assay on SF-539 CNS, 4530 nM; with HOP-92 NSCLC, 951 nM and 9400 nM; in the assay on TK-10 renal, 10700 nM.
Regarding `Cn1c(COC(=O)NCCN2CCOCC2)nc2c(N3CCOCC3)nc(-c3ccccc3)nc21`, the GI50 is 523 nM in the assay with K-562 leukemia; 936 nM in the assay on ACHN renal; 1330 nM in the assay on PC-3 prostate; 521 nM in the assay with HL-60(TB) leukemia; 2090 nM with SF-295 CNS; 1080 nM in the assay with BT-549 breast. The GI50 in the assay with SNB-19 CNS was 1570 nM; in the assay on SF-539 CNS it was 1350 nM; in the assay with HOP-92 NSCLC it was 779 nM; in the assay with TK-10 renal, 1480 nM. The TGI in the assay with K-562 leukemia was over 100000 nM; in the assay on ACHN renal it was 2230 nM; in the assay on PC-3 prostate it was 3000 nM; with HL-60(TB) leukemia, 4030 nM; in the assay on SF-295 CNS it was 5990 nM; with BT-549 breast it was 2710 nM. Moreover, the total growth inhibition concentration (TGI) in the assay with SNB-19 CNS turned out to be 3310 nM; in the assay with SF-539 CNS, 2680 nM; with HOP-92 NSCLC it was 2450 nM; with TK-10 renal it was 2880 nM.
For `COc1cc(OC)cc(N2CCN(C(=O)Nc3nc4cc(F)ccc4nc3OC)CC2)c1`, the GI50 in the assay with K-562 leukemia is 18.4 nM and 37.5 nM and 30.4 nM; in the assay with ACHN renal, 12.9 nM and 60.8 nM and 40.8 nM; with PC-3 prostate, 116 nM and 31.2 nM and 33 nM; in the assay on HL-60(TB) leukemia, 22.6 nM and 29.9 nM and 26.1 nM; with SF-295 CNS, < 18.4 nM and 25.5 nM; in the assay on BT-549 breast, 34.5 nM and 45.8 nM and 33.5 nM. Also, the 50% growth inhibitory concentration (GI50) is 41.8 nM and 45 nM and 43.1 nM with SNB-19 CNS; 19.5 nM and 22.8 nM and 13.6 nM with SF-539 CNS; < 10 nM and 6.2 nM with HOP-92 NSCLC; 16600 nM and 10300 nM with TK-10 renal. Besides, the concentration for total growth inhibition (TGI) in the assay on K-562 leukemia was over 100000 nM; with ACHN renal it was 25600 nM and > 100000 nM; in the assay with PC-3 prostate, 40700 nM and 22900 nM; with SF-295 CNS, 20600 nM; in the assay with BT-549 breast, 2490 nM and 2330 nM and 498 nM; with SNB-19 CNS, > 95900 nM and 40300 nM. Further, the TGI in the assay with HOP-92 NSCLC was 19300 nM and 3830 nM and 6770 nM; with TK-10 renal, 71600 nM and 63800 nM.
